ChEMBL document CHEMBL5465560, “Selectivity Literature for EUbOPEN Chemogenomic Library” (2024)

How the values were obtained:
[1] = molecular target: T1, Ankyrin repeat and protein kinase domain-containing protein 1 (Homo sapiens) (UniProt Q8NFD2); details: at 10 µM
T1 sequence (whole entry): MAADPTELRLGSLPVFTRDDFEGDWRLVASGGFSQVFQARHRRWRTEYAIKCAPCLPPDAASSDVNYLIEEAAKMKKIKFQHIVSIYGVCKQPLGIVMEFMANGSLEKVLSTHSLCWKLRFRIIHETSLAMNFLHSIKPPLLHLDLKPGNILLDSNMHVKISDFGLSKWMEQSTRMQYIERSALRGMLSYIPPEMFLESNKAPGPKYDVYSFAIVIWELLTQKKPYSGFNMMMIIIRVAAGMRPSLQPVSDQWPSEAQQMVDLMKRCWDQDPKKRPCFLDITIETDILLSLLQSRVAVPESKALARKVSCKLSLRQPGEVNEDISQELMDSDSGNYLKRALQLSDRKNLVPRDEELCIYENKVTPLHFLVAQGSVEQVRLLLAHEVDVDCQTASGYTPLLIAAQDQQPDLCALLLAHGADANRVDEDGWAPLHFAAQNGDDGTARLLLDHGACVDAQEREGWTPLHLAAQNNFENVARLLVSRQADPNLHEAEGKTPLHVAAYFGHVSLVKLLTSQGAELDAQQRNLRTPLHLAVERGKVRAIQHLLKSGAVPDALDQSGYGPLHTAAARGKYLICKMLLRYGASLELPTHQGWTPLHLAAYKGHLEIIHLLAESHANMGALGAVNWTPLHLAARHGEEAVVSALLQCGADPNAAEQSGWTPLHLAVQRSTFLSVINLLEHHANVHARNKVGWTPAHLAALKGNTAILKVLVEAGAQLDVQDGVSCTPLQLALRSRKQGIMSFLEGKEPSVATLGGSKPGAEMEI

[2] = system: Epidermal growth factor receptor (Homo sapiens), P00533 [UNDEFINED MUTATION]; test: Selectivity interaction (KinomeScan (DiscoverX)) EUB0000045b EGFR; details: at 10 µM
[3] = molecular target: Dual specificity protein kinase CLK2 (Homo sapiens, UniProt P49760); test: Selectivity interaction (KinomeScan (DiscoverX)) EUB0000045b CLK2
[4] = molecular target: Serine/threonine-protein kinase SBK1 (Homo sapiens) (UniProt Q52WX2); test: Selectivity interaction (Kinase panel (Z-LYTE Assay)) EUB0001632a SBK1; details: at 10 µM
[5] = molecular target: T2, Mitogen-activated protein kinase kinase kinase 13 (Homo sapiens) (UniProt O43283); test: Selectivity interaction (KinomeScan (DiscoverX)) EUB0001049a MAP3K13; details: at 1 µM
T2 sequence (whole entry): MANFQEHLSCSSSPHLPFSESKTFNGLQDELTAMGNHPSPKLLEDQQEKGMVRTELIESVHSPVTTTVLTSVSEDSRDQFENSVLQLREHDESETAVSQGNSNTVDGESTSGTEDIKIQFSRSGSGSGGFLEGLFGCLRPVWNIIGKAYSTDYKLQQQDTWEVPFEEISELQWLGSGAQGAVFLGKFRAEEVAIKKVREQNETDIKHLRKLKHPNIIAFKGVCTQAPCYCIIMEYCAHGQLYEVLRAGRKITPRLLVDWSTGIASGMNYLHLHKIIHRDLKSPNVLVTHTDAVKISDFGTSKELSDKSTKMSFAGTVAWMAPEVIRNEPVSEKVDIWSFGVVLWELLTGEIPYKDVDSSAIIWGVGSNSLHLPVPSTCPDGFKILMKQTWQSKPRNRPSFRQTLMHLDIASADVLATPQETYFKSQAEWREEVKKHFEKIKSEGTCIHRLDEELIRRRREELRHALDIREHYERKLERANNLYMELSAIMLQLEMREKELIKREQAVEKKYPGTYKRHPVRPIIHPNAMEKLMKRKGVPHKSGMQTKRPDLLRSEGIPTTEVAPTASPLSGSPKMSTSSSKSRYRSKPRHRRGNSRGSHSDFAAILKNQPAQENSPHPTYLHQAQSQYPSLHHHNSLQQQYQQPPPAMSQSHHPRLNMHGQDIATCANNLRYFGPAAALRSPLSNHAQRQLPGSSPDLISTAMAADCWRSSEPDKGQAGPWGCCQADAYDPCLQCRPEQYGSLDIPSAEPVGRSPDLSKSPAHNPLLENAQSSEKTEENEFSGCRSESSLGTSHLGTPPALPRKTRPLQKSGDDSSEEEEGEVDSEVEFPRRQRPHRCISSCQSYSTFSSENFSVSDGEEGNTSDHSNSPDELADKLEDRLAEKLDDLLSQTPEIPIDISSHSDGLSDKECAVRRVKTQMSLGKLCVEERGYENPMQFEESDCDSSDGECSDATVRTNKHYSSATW

[6] = molecular target: T3, Cyclin-dependent kinase 11A (Homo sapiens) (UniProt Q9UQ88); test: Selectivity interaction (KinomeScan (DiscoverX)) EUB0000655a CDK11A; details: at 10 µM
T3 sequence (whole entry): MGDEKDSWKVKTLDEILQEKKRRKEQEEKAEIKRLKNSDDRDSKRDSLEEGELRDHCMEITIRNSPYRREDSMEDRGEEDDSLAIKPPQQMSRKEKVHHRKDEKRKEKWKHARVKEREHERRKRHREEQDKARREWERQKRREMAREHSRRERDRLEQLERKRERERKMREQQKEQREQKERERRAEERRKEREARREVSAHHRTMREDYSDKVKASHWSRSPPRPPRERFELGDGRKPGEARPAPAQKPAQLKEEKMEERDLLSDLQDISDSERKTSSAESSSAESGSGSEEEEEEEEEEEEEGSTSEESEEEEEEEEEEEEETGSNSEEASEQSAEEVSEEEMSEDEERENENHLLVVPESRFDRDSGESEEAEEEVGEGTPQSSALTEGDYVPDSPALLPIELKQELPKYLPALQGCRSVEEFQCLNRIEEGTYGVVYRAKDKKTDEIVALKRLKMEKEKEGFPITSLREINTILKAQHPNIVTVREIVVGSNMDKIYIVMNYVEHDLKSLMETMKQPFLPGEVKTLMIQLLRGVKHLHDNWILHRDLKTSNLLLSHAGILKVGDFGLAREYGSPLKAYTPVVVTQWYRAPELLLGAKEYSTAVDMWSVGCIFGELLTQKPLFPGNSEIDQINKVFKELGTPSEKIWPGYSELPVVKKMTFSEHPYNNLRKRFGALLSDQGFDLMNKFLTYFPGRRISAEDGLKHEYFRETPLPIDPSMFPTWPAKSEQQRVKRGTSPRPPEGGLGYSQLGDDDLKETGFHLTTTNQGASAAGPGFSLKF

Dual specificity protein kinase CLK2, sequence (P49760 whole entry, looked up): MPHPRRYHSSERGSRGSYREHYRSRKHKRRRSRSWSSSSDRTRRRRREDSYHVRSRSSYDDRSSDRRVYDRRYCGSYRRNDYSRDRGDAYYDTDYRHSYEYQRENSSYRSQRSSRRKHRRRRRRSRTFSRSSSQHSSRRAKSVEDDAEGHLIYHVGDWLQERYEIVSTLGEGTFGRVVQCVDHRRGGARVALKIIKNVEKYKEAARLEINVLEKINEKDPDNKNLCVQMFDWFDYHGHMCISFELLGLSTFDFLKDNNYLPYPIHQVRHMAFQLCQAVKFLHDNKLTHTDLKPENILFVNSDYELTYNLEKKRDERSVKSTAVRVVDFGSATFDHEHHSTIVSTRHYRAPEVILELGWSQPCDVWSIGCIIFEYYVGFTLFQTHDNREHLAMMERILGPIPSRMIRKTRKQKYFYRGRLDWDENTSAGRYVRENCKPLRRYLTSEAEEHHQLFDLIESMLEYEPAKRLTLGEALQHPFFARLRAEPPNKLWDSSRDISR
Epidermal growth factor receptor (Homo sapiens), P00533 [UNDEFINED MUTATION], sequence (P00533 whole entry, looked up, change not shown): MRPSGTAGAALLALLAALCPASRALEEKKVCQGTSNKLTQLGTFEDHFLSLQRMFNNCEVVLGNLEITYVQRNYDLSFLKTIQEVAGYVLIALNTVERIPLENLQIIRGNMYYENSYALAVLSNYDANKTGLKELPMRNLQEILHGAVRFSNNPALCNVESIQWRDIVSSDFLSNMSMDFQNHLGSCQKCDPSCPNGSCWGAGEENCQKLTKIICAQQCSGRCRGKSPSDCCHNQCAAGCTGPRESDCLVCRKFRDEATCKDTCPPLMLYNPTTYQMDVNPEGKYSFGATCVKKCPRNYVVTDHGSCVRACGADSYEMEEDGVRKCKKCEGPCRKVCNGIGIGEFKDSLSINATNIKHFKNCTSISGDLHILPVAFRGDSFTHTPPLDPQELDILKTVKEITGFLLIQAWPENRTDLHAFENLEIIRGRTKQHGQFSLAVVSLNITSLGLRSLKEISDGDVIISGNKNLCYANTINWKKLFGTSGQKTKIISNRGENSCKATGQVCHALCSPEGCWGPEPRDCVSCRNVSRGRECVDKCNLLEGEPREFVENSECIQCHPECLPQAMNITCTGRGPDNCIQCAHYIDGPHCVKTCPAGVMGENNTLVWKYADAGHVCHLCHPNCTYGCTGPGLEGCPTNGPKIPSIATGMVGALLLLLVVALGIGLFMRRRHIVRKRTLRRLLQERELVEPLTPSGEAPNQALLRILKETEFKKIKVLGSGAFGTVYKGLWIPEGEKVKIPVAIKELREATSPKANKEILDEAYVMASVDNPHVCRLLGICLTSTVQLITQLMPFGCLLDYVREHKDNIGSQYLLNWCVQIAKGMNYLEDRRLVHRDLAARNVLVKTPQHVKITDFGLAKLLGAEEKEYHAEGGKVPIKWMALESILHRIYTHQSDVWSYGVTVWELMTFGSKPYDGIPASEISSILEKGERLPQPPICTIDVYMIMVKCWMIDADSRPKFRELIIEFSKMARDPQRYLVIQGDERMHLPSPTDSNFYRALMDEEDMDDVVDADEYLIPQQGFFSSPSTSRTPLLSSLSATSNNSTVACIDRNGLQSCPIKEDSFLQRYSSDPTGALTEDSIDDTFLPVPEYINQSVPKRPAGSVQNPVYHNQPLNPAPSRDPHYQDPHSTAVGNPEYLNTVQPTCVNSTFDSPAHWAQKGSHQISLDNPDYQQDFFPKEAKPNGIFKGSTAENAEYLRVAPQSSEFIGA
Serine/threonine-protein kinase SBK1 (Homo sapiens), sequence (Q52WX2 whole entry): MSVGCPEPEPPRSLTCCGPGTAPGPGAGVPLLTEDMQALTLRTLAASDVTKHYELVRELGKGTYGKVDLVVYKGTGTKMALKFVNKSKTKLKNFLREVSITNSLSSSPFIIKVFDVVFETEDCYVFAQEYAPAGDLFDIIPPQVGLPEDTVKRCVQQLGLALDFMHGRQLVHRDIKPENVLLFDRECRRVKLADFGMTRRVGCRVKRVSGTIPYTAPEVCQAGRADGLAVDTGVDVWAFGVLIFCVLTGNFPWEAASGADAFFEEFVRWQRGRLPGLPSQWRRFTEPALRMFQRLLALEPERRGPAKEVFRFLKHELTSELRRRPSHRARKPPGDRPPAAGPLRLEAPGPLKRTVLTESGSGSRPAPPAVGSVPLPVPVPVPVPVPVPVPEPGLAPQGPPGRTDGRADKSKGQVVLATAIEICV

Q: For `COCC(=O)NC/C=C/c1ccc2ncnc(Nc3ccc(Oc4ccc(C)nc4)c(C)c3)c2c1` [CP-724714], which % of control [1] is on record?
A: 60%

Q: `C=CC(=O)Nc1cc(-n2c(=O)ccc3cnc4ccc(-c5ccc(NS(C)(=O)=O)cc5)cc4c32)ccc1C` was tested. Which % of control [2] did it give?
A: 65%

Q: And the % of control ([3]; at 1 µM)?
A: 100%

Q: And the % of control ([3]; at 10 µM)?
A: 50%

Q: `Cn1cc(-n2cnc3c(NCc4nc5cc(Cl)c(Cl)cc5[nH]4)nc(N4CCOCC4)nc32)cn1` was tested. Which % of control [4] did it give?
A: -0.405%

Q: Which % of control [5] does the source give for `COc1cc(Nc2nc(C)cc(-c3cnn4nc(OC)ccc34)n2)cc(C(F)(F)F)c1` here?
A: 95%

Q: For `CN(C)CCOc1ccc(-c2nc(-c3ccncc3)c(-c3ccc4c(c3)CC/C4=N\O)[nH]2)cc1`, which % of control [6] is on record?
A: 98%
